In patent US20260191815A1, “THIOACRYLAMIDE DERIVATIVES FOR USE IN THE PREVENTION OR TREATMENT OF LIVER FIBROSIS” (CMR CUREDIAB METABOLIC RESEARCH GMBH, priority 2022, published 2026):

Assays:
[1] = test system: interleukin-6 (IL-6) secretion by LX2 cells; assay: Olink Inflammation immunoassay of LX2 supernatants: IL-6; format: cell-based, human; details: for amount of secreted IL-6 after combined treatment with TGF-β1: 10 μM + 5 ng/ml TGF-β1, LX2 cells
Protocol: The human hepatic stellate cell line LX2 was purchased from Merck. The cells were used up to passage ten and incubated under sterile conditions at 37° C. and 5% CO2. The cells were cultivated in medium containing Dulbecco's Modified Eagle's Medium with 4.5 g/l glucose (ThermoFisher), 4 mmol/l glutamine (ThermoFisher), 2% fetal bovine serum (FBS) (Merck), 100 U/ml penicillin and 100 μg/ml streptomycin (Merck). After 2 days, LX2 cells were starved for FBS for 24 h and then pretreated with 10 μM HK1 (Taros Chemicals GmbH & Co. KG) or 10 μM HK3 (Taros Chemicals GmbH & Co. KG) for 30 min. Subsequently, 5 ng/ml recombinant TGF-β1 (R&D Systems, Minneapolis, MN, USA) was added to the hepatic stellate cell cultures for 24 h. LX2 cells were also incubated with 5 ng/ml TGF-β1 alone as positive control for the hepatic stellate cell activation. Recombinant TGF-β1 was dissolved in sterile 4 mmol/l HCl (Merck) containing 0.1% bovine serum albumin (Roth Karlsruhe, Germany) as carrier protein. HK1 and HK3 were dissolved in sterile dimethyl sulfoxide (DMSO) (Sigma-Aldrich, Munich, Germany). Stimulations with 10 μM HK1, 10 μM HK3 and the corresponding vehicles (HCl and DMSO with or without HCl) alone for 24 h were also included as treatments.
LX2 cells were cultured and treated as described in Example 1. After the incubation time, the supernatants of LX2 cells were collected, centrifuged for 10 min at 2000×g at 4° C. and transferred to new tubes to measure 92 proteins in the cell culture supernatants simultaneously using the Olink Inflammation multiplex immunoassay (Olink proteomics, Uppsala, Sweden). This panel covers 92 proteins, including pro- and anti-inflammatory cytokines, growth factors, chemokines and factors involved in biological processes such as apoptosis, inflammatory and immune response, cell adhesion, chemotaxis, or fibrosis. This protein quantification method is based on a proximity extension assay technology, which combines a dual-recognition immunoassay using two matched antibodies labelled with DNA oligonucleotides, with a polymerase chain reaction (PCR) amplification and a microfluidic quantitative real-time PCR as readout. The biomarker concentrations are given as normalized protein expression (NPX) values, which were generated from the threshold cycle values from the qPCR, and represent an arbitrary unit on a log 2 scale.
Differences were analysed by one-way ANOVA followed by the Tukey method as correction for multiple testing.

[2] = test system: 3D primary human hepatocyte (PHH) spheroid NASH model; assay: Intracellular lipid accumulation (AdipoRed) in 3D PHH:NPC NASH spheroids; format: cell-based; details: NASH medium; for lipid contents of spheroids compared to NASH (100%): 1 week of exposure
Protocol: Experiments were conducted using HepaPredict's (HepaPredict AB, Sweden) 3D primary human hepatocyte (PHH) spheroid NASH model (e.g. as published in Bell et al. Sci Rep. 2016 May 4; 6:25187. doi: 10.1038/srep25187).
Cryopreserved primary human hepatocytes were obtained from BioIVT (USA) and nonparenchymal cells (NPC) from LifeNetHealth (USA). After thawing, PHH-NPC cocultures were seeded in a multi-well 96-well Elplasia plate (Corning) in William's E medium containing 11 mM glucose, 10 μg/mL (control) or 10 mg/mL insulin (NASH), 100 nM dexamethasone, 5.5 mg/L transferrin, 6.7 μg/L selenite, 2 mM L-glutamine, 1 U/mL penicillin, 0.1 mg/mL streptomycin, and 10% fetal bovine serum (FBS). PHH-NPC cocultures were seeded in ratio of 6:1 PHH:NPC with a total of 40,000 PHH per well. When spheroids were formed, FBS was phased out and spheroids were maintained in either the same media to provide the negative control (“Ctrl”), or with addition of albumin-conjugated free fatty acid (FFA), comprised of 240 μM palmitic acid and 240 μM oleic acid (NASH medium) to provide the positive control (“NASH”). Compound exposure was conducted in NASH medium with medium exchanges every 48-72 hours.
For cell viability and intracellular lipid accumulation assays, cells were seeded as previously reported (Bell et al., SciRep, 2016). In short, PHH and NPC were seeded as a single spheroid per well into 96-well ultra-low attachment (ULA) plates (Corning) at 1,500 viable cells per well with the PHH:NPC ratio 6:1.
After spheroid formation, cells were exposed to up to five different concentrations of the candidate molecules HK1 or HK3 (0.1 μM, 0.3 μM, 1 μM, 3 μM, and 10 μM) with or without FFA in the culture medium. All compound stocks and dilutions were prepared in DMSO, aliquoted and stored protected from light at −20° C. Fresh dosing solutions were prepared from these aliquots on each dosing day. All endpoints were evaluated after 14 days of exposure.
For statistical comparisons, normalized values for a given condition were compared to either the corresponding vehicle (DMSO) controls or the respective FFA (NASH) controls at the same time point using heteroscedastic unpaired two-tailed t-tests.
Intracellular lipid accumulation was quantified using the AdipoRed Adipogenesis Assay Kit (Lonza) following the manufacturer's instructions. […] Afterwards, spheroids were disrupted by vigorous pipetting and fluorescence was measured (Ex/Em: 485/572) using a SpectraMax iD5 multi-mode microplate reader (Molecular Devices).
To evaluate whether the two candidate compounds HK1 and HK3 impacted hepatic steatosis, we assessed their impact on intracellular triglyceride accumulation after 1 week of exposure. […]

[3] = test system: caspase 3/7 activity in HepG2 cells; assay: Caspase 3/7 activity provoked by palmitate in HepG2 cells; format: cell-based; details: for reduction of the caspase 3/7 activity provoked by palmitate, compared among thioacrylamide derivatives: 100 nM + palmitate 200 μM, n=4; for activity at 10 µM: Homo sapiens, 10 μM pre-treatment 30 min + palmitate 200 μM, 24 h, read-out: caspase 3/7 activity, % of control
Protocol: The potential protective effect of HK1 and HK3 on caspase 3/7 activity in HepG2 cells and primary human hepatocytes was analysed.
HepG2 cells were obtained from Merck (Darmstadt, Germany) (ECACC-certified), while primary human hepatocytes were obtained from Thermo Fisher Scientific (Waltham, MA, USA), and all were cultured according to the instructions of the respective manufacturers. During experiments, cells were cultured in serum-free medium. Unless otherwise stated, cells were treated with 200 μM bovine serum albumin (BSA)-conjugated palmitate (Cayman Chemicals, Ann Arbor, MI) alone or in combination with 10 μM HK1 (Taros Chemicals GmbH & Co. KG, Dortmund, Germany) and HK3 (Taros Chemicals GmbH & Co. KG, Dortmund, Germany) 30 min prior to palmitate exposure for 24 hours. The vehicle BSA was used according to the palmitate concentration and DMSO according to HK1 and HK3 concentration. 2 μM Staurosporine (Abcam, Cambridge, GB) was used as a positive and 100 μM Caspase 3/7 inhibitor (CI) (Cayman Chemicals) as a negative control.
Differences were analysed by one-way ANOVA.
A hepatoprotective effect was determined as described in Example 4. A treatment was performed with HK1, HK2, HK3, HK4 or HK5 (100 nM) either alone or in combination with palmitate (200 μM).
Differences were analysed by one-way ANOVA, n=4.

Compound	attenuation of protein content of IL-6 compared to TGF-treated LX2 cells ([1]; 10 μM + 5 ng/ml TGF-β1) [%]	amount of secreted IL-6 after combined treatment with TGF-β1 [1]	lipid contents of spheroids compared to NASH (100%) ([2]; 1 μM) [%]	lipid contents of spheroids compared to NASH (100%) ([2]; 3 μM) [%]	lipid contents of spheroids compared to NASH (100%) ([2]; 10 μM) [%]	reduction of the caspase 3/7 activity provoked by palmitate, compared among thioacrylamide derivatives [3]	activity at 10 µM [3] [%]	accumulation of intracellular lipids compared to the positive control ([2]; across 1 μM, 3 μM and 10 μM, 1 week)
Cc1cc(NC(=S)/C(C#N)=C(\O)C2CC2)ccc1F [HK1, 2-Cyano-3-cyclopropyl-N-(4-fluoro-3-methyl-phenyl)-3-hydroxy-thioacrylamide]	59	downregulated	79	81	62	stronger reduction	263	–
Cc1cc(NC(=S)/C(C#N)=C(\O)C2CC2)ccc1[N+](=O)[O-] [HK3, 2-Cyano-3-cyclopropyl-3-hydroxy-N-(3-methyl-4-nitro-phenyl)-thioacrylamide]	–	downregulated	–	–	–	strongest reduction	42.3	46-49%
